From PubChem BioAssay (NCI)
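Compound exposure: 48 hours, 5 concentrations, 96-well plates. At the GI50, growth is halved. TGI: concentration producing complete growth inhibition.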

Legend:
Assay in all cases: NCI-60 cell line screen, 48 h; in the data active = GI50 below about 0.43 µM; inactive = the rest
786-0 renal = system: 786-0 renal
A498 renal = system: A498 renal
A549 NSCLC = system: A549 NSCLC
ACHN renal = system: ACHN renal
BT-549 breast = system: BT-549 breast
CAKI-1 renal = system: CAKI-1 renal
CCRF-CEM leukemia = system: CCRF-CEM leukemia
COLO 205 colon = system: COLO 205 colon
DU-145 prostate = system: DU-145 prostate
EKVX NSCLC = system: EKVX NSCLC
HCC-2998 colon = system: HCC-2998 colon
HCT-116 colon = system: HCT-116 colon
HCT-15 colon = system: HCT-15 colon
HL-60(TB) leukemia = system: HL-60(TB) leukemia
HOP-62 NSCLC = system: HOP-62 NSCLC
HS 578T breast = system: HS 578T breast
HT29 colon = system: HT29 colon
IGROV1 ovarian = system: IGROV1 ovarian
K-562 leukemia = system: K-562 leukemia
KM12 colon = system: KM12 colon
LOX IMVI melanoma = system: LOX IMVI melanoma
M14 melanoma = system: M14 melanoma
MALME-3M melanoma = system: MALME-3M melanoma
MCF7 breast = system: MCF7 breast
MDA-MB-231 breast = system: MDA-MB-231 breast
MDA-MB-435 = system: MDA-MB-435
MOLT-4 leukemia = system: MOLT-4 leukemia
NCI-H226 lung = system: NCI-H226 lung
NCI-H23 lung = system: NCI-H23 lung

COc1ccccc1-n1c(-c2cc(O)ccc2C)cn2c3c(=O)[nH]c(=O)n(C)c3nc12
8.12 µM: TGI (HT29 colon)
> 100 µM: TGI (786-0 renal) | TGI (A498 renal) | TGI (A549 NSCLC) | TGI (BT-549 breast) | TGI (CCRF-CEM leukemia) | TGI (DU-145 prostate) | TGI (EKVX NSCLC) | TGI (HCC-2998 colon) | TGI (HCT-116 colon) | TGI (HCT-15 colon) | TGI (HL-60(TB) leukemia) | TGI (HOP-62 NSCLC) | TGI (K-562 leukemia) | TGI (KM12 colon) | TGI (M14 melanoma) | TGI (MALME-3M melanoma) | TGI (MCF7 breast) | TGI (MDA-MB-231 breast) | TGI (MDA-MB-435) | TGI (MOLT-4 leukemia) | TGI (NCI-H226 lung)
7.05 µM: TGI (CAKI-1 renal)
16 µM: TGI (LOX IMVI melanoma)
active: GI50 (K-562 leukemia) 310 nM
5.75 µM: TGI (HS 578T breast)
inactive: GI50 (786-0 renal) 6.24 µM | GI50 (A498 renal) 25 µM | GI50 (A549 NSCLC) 17.4 µM | GI50 (ACHN renal) 1990 nM | GI50 (BT-549 breast) 20.5 µM | GI50 (CAKI-1 renal) 2950 nM | GI50 (CCRF-CEM leukemia) > 100 µM | GI50 (COLO 205 colon) 18.2 µM | GI50 (DU-145 prostate) 7.04 µM | GI50 (EKVX NSCLC) 10.1 µM | GI50 (HCC-2998 colon) > 100 µM | GI50 (HCT-116 colon) 21.1 µM | GI50 (HCT-15 colon) 54.7 µM | GI50 (HL-60(TB) leukemia) > 100 µM | GI50 (HOP-62 NSCLC) 7.74 µM | GI50 (HS 578T breast) 567 nM | GI50 (HT29 colon) 1620 nM | GI50 (IGROV1 ovarian) 3.52 µM | GI50 (KM12 colon) > 100 µM | GI50 (LOX IMVI melanoma) 2280 nM | GI50 (M14 melanoma) 90.8 µM | GI50 (MALME-3M melanoma) > 100 µM | GI50 (MCF7 breast) > 100 µM | GI50 (MDA-MB-231 breast) 3.06 µM | GI50 (MDA-MB-435) > 100 µM | GI50 (MOLT-4 leukemia) 85.9 µM | GI50 (NCI-H226 lung) 78.7 µM | GI50 (NCI-H23 lung) 60.9 µM
63.5 µM: TGI (ACHN renal)
48 µM: TGI (COLO 205 colon)
13.9 µM: TGI (IGROV1 ovarian)
